Source: paper PMC7822874, “Chemoprotective antimalarials identified through quantitative high-throughput screening of Plasmodium blood and liver stage parasites” (Scientific Reports, 2021)
Read-outs that look alike come from different tables or passages of the source.

Tests used:
[1] = system: Plasmodium falciparum Dd2 asexual blood stage parasites; test: microbe, parasite or virus in culture; set-up: species or system Plasmodium falciparum Dd2 in human erythrocytes; single determination (one 11-point concentration-response curve); conditions: Plasmodium falciparum, DD2, Erythrocyte, 72 h
[2] = in vitro; conditions: human, hepg2 cells
[3] = system: HepG2; conditions: human, hepg2 cells, 48 h
[4] = system: P. berghei-ANKA-GFP-LucCON liver stage parasites in HepG2-A16-CD81EGFP cells; test: P. berghei liver stage Pb-Luc assay, Method 1 (UCSD, 1536-well); format: cell-based, Plasmodium berghei; conditions: Method 1; for Max Resp (signal direction of the dose response): Decrease = decreasing P. berghei viability with dose, Increase = increasing signal, Inactive = no dose response
[5] = in vitro; conditions: human
[6] = Plasmodium berghei, Hill fit, 50% of maximum activity response, read-out: AC50
[7] = Plasmodium berghei, log10 of molar AC50 from Hill fit, read-out: Log AC50 (converted)
[8] = HepG2-A16-CD81EGFP cells, uninfected

SMILES | AC50 ([1]; read-out: AC50) | CC50 at 48 h [2] | Log AC50 (M) [3] | also measured
Cc1nc2c(=O)n(C)c(=O)nc-2n(C)n1 [MLS000528498-01] | 0.422 µM | 0.862 µM | -6.0643 M | Max Resp (signal direction of the dose response) [4]: Decrease; AC50 [4, 6]: 0.056 µM; AC50 [4, 7]: 0.0562 µM
c1ccc(-c2nc(N3CCCCCC3)c3ccccc3n2)nc1 [MLS000042263-01] | 1.68 µM | 2.73 µM | -5.5643 M | viability at 48 h, 1 µM [5, 8]: 102%; viability at 48 h, 3 µM [5, 8]: 88%
CN1CCN(c2ccc(Nc3ccnc4cc(Cl)ccc34)cc2)CC1 [MLS001203414-01] | 0.188 µM | 24.3 µM | -4.6143 M | viability at 48 h, 1 µM [5, 8]: 86%; viability at 48 h, 3 µM [5, 8]: 90%
CCOc1ccc(Nc2nc(NCC3CCCO3)c3ccccc3n2)cc1 (stereo not drawn) [MLS000724397-01] | 1.88 µM | 43.2 µM | -4.3643 M | viability at 48 h, 1 µM [5, 8]: 104%; viability at 48 h, 3 µM [5, 8]: 83%
CCN1CC=C(c2c[nH]c3ccccc23)CC1 [MLS000093713-01] | 4.22 µM | 24.3 µM | -4.6143 M | viability at 66 h [5]: 103%
O=C(Nc1nc(-c2ccccn2)cs1)Nc1ccc(F)cc1F [MLS001175659-01] | 5.31 µM | 17.2 µM | -4.7643 M | viability at 48 h, 1 µM [5, 8]: 94%; viability at 48 h, 3 µM [5, 8]: 79%
C/C(=N\NC(=O)c1cccc(Br)c1)c1ccccn1 [MLS001232242-01] | 4.73 µM | 1.37 µM | -5.8643 M | Max Resp (signal direction of the dose response) [4]: Decrease; AC50 ([4]; Hill fit, 50% of maximum activity response, read-out: AC50): 0.891 µM; Log AC50 (M) ([4]; log10 of molar AC50 from Hill fit): -6.050 M; AC50 [4, 6]: 0.794 µM; AC50 [4, 7]: 0.794 µM
CCc1ccc(Nc2cc(=O)n(C3CCCCC3)c(=O)[nH]2)cc1 [MLS000094379-01] | – | 43.2 µM | -4.3643 M | viability at 66 h [5, 8]: 104%
CCOC(=O)c1sc(NC(=O)CNCc2ccccn2)c(C(=O)OCC)c1C [MLS001005083-01] | – | 43.2 µM | -4.3643 M | viability at 48 h, 1 µM [5, 8]: 101%; viability at 48 h, 3 µM [5, 8]: 96%
Cc1ccc(C)c(N2CCN(CCCNC(=O)c3cnn(-c4cccc(Cl)c4)c3C3CCN(C(=O)OC(C)(C)C)CC3)CC2)c1 [NCGC00126914-01] | 8.41 µM | 43.2 µM | -4.3643 M | –
CCCN1CCN(CCCNC(=O)c2ccc3c(c2)sc2nc(-c4ccc(OCC)cc4)cn23)CC1 [NCGC00113254-01] | 4.22 µM | 24.3 µM | -4.6143 M | –
Cc1cc(NC2CCCCC2)nc(NCc2ccccc2)n1 [MLS000555549-01] | 16.8 µM | 34.3 µM | -4.4643 M | –
COc1ccc(NC(=O)c2ccc(Cl)c(S(=O)(=O)N3CCc4ccccc4C3)c2)cn1 [MLS000057537-01] | 7.5 µM | 34.3 µM | -4.4643 M | –
Cc1cc(Nc2ccc(Cl)cc2)nc(NCc2ccccc2)n1 [MLS000591025-01] | 0.422 µM | 43.2 µM | -4.3643 M | –
CN(C)CCCNc1c2ccccc2nc2ccccc12 [MLS001198528-01] | 4.22 µM | 12.2 µM | -4.9143 M | –
CC(=O)C1=C(c2ccc(Cl)c(Cl)c2)N(C(C)=O)n2cnnc2S1 [NCGC00137238-01] | 3.76 µM | 43.2 µM | -4.3643 M | –
CC1CCCCN1CCCNC(=O)c1ccc2c(c1)sc1nc(-c3ccc(F)cc3)cn12 (stereo not drawn) [NCGC00121681-01] | 1.88 µM | 30.6 µM | -4.5143 M | –
CCC1CCCCN1CCCNC(=O)c1ccc2c(c1)sc1nc(-c3ccc(F)cc3)cn12 (stereo not drawn) [NCGC00121679-01] | 1.5 µM | 34.3 µM | -4.4643 M | –
CC(C)(C)c1ccc(-c2cc(C[C@H]3CNCC[C@H]3CC(=O)N3CCN(c4ccccn4)CC3)no2)cc1 [NCGC00400637-01] | 15 µM | 38.5 µM | -4.4143 M | –

SMILES | AC50 ([1]; read-out: AC50) | CC50 at 48 h [2] | Log AC50 (M) [3] | also measured
COc1ccc(/C=N/Nc2nc(Nc3ccccc3)nc(N3CCCC3)n2)cc1[N+](=O)[O-] [MLS000723644-01] | 6.68 µM | 27.3 µM | -4.5643 M | –
COC(=O)C1=C(C)NC(C)=C(C(=O)OC(C)(C)CN(C)CCC(c2ccccc2)c2ccccc2)C1c1cccc([N+](=O)[O-])c1.Cl (stereo not drawn) [NCGC00167492-01] | 2.99 µM | 24.3 µM | -4.6143 M | –
Cc1ccc(Oc2c(C)[nH]c(-c3ccccc3)nc2=O)cc1 [MLS000851017-01] | 5.31 µM | 43.2 µM | -4.3643 M | –
Cc1cccc(CN2CCCC(O)(CNCc3ncccc3C)C2=O)c1 (stereo not drawn) [NCGC00429062-01] | 16.8 µM | 38.5 µM | -4.4143 M | –
COc1ccc(C2=CC(c3ccc(F)cc3)n3ncc(C(=O)Nc4ccc(C)cc4)c3N2)cc1 (stereo not drawn) [NCGC00127228-01] | 2.37 µM | 30.6 µM | -4.5143 M | –
COc1cc(Cl)c(NC2=CC(=O)C(=O)c3ccccc32)c(OC)c1 [MLS001360325-01] | 1.68 µM | 43.2 µM | -4.3643 M | –
CC(C)C[C@@H]1N[C@H](C(=O)NC(C)C)Cc2cn(Cc3ccncc3)c3cccc1c23 [NCGC00395386-01] | 17.2 µM | 44.4 µM | -4.3528 M | –
COc1ccc2nc(C)cc(NCc3cccc(C(F)(F)F)c3)c2c1 [MLS001174340-01] | 2.11 µM | 30.6 µM | -4.5143 M | –
Oc1cccc(C(Nc2nccs2)c2ccc3cccnc3c2O)c1 (stereo not drawn) [MLS000760926-01] | 7.5 µM | 38.5 µM | -4.4143 M | –
Cc1ccc2nc(C)cc(Nc3ccc([N+](=O)[O-])cc3)c2c1 [MLS000710716-01] | 6.68 µM | 43.2 µM | -4.3643 M | –
CC(C)(C)CC(C)(C)c1ccc(O)c(Cc2ccc(Cl)cc2Cl)c1 [NCGC00095016-01] | 1.68 µM | 21.7 µM | -4.6643 M | –
CCOc1ccccc1NC(=O)Nc1ccc2nc(N3CCN(C)CC3)cc(C)c2c1 [NCGC00126491-01] | 1.33 µM | 43.2 µM | -4.3643 M | –
COc1ccc(-[n+]2c(-c3ccc(Br)cc3)cn3c2CCc2ccccc2-3)cc1.[Br-] [MLS000391920-01] | 4.22 µM | 43.2 µM | -4.3643 M | –
CCCCNc1cc(C)nc(NCc2ccccc2)n1 [MLS000078573-01] | 9.44 µM | 34.3 µM | -4.4643 M | –
COC(=O)C1=C(C)NC(C)=C(C(=O)OCCCN2CCC(c3ccccc3)(c3ccccc3)CC2)C1c1cccc([N+](=O)[O-])c1.Cl (stereo not drawn) [NCGC00163135-01] | – | 43.2 µM | -4.3643 M | AC50 [1]: 2.99 µM
CCOc1ccc(C2=C(C(C)=O)Sc3nnc(C)n3N2C(C)=O)cc1 [NCGC00137200-01] | 5.31 µM | 43.2 µM | -4.3643 M | –
COc1ccccc1-c1ccc(CN2CCCC(c3nc4ccc(F)cc4c(=O)[nH]3)C2)cc1 (stereo not drawn) [NCGC00377223-02] | 8.41 µM | 43.2 µM | -4.3643 M | –
CCN(CC)CCCNC(=O)c1ccc2c(c1)N(Cc1c(F)cccc1Cl)C(=O)c1ccccc1S2 [NCGC00108146-01] | 0.944 µM | 38.5 µM | -4.4143 M | –
